Test results as given in US7741520B2, “Sulfonanilide analogs as selective aromatase modulators (SAMs)” (The Ohio State University Research Foundation, priority 2006, dated 2010).

What was measured:
[1] = target: T1, aromatase activity in JAR choriocarcinoma placental cells (Homo sapiens, UniProt P11511); assay: Tritiated water-release assay in JAR cells; format: cell-based; settings: 24 h, 15 μM (FIG. 11), read-out: decrease of aromatase activity in JAR cells
T1 construct: JAR choriocarcinoma placental cells (which produce aromatase expression from promoter I.1 mediated by protein kinase C); host or cells: JAR
T1 sequence (P11511 1-503): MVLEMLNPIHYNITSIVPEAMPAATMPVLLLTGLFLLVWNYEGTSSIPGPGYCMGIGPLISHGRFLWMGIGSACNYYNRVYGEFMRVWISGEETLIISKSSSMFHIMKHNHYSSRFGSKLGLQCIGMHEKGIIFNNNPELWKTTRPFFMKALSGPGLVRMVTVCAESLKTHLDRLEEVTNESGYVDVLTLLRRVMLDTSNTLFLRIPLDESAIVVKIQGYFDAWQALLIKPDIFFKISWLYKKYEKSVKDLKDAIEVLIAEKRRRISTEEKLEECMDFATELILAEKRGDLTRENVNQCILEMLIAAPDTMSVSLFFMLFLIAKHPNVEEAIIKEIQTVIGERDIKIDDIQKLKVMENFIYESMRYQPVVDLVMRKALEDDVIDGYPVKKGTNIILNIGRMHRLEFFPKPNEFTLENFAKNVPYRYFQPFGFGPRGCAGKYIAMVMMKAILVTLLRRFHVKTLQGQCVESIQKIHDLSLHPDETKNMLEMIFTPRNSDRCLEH
Method: (§1) Cell Culture. AR and SK-BR-3 cells were obtained from ATCC (Rockville, Md.). SK-BR-3 cells were maintained in phenol red-free custom media (MEM, Earle's salts, 1.5× amino acids, 2× non-essential amino acids, L-glutamine, 1.5× vitamins, Gibco BRL) supplemented with 10% fetal bovine serum (FBS), 2 mM L-glutamine and 20 mg/L gentamycin. JAR cells were maintained in RPMI 1640 medium with 2 mM L-glutamine adjusted to contain 1.5 g/L sodium bicarbonate, 4.5 g/L glucose, 10 mM HEPES, and 1.0 mM sodium pyruvate, 90%; FBS, 10%. Fetal bovine serum was heat inactivated for 30 min in a 56° C. water bath before use. Cell cultures were grown at 37° C., in a humidified atmosphere of 5% CO2 in a Hereaus CO2 incubator. For all experiments, cells were plated in 6 well plates and grown to subconfluency. Before treatment, the media was changed to a defined one containing DMEM/F12 media (Sigma) with 1.0 mg/mL human albumin (OSU Hospital Pharmacy), 5.0 mg/L human transferin and 5.0 mg/L bovine insulin.
(§2) Tritiated water-release assay in JAR and SK-BR-3 cell lines. Measurement of aromatase enzyme activity was based on the tritium water release assay. Cells in six well plates were treated with 0.1% DMSO (control), and inhibitors at the indicated concentrations. After 24 hours, the cells were incubated 3 hours (SK-BR-3 cells) or 1 hour (JAR cells) with fresh media along with 100 nM [1β-^3H]-androst-4-ene-3,17-dione (1 μCi). Subsequently, the reaction mixture was removed, and proteins were precipitated using 10% trichloroacetic acid at 42° C. for 20 min. After a brief centrifugation, the media was extracted three times with an equal amount of chloroform to remove remaining substrate and further treated with dextran-treated charcoal. After centrifugation, a 250-μl aliquot containing the product was counted in 5 ml of liquid scintillation mixture. Results were corrected for blanks and for the cell contents of culture flasks, and results were expressed as picomoles of ^3H2O formed per hour incubation time per million live cells (pmol/h/10^6 cells). To determine the amount of cells in each flask, the cells were lysed and analyzed using the diphenylamine DNA assay adapted to a 96-well plate. IC50 sigmoidal dose-response data were analyzed with Microsoft Excel and the Graphpad Prism (Version 3.0) program.
(§3) Diphenylamine DNA Assay To determine the amount of viable cells in each flask, the cells were lysed with 0.5N NaOH aqueous solution and analyzed using the diphenylamine DNA assay adapted to a 96-well plate. DNA standards (0-30 μg) were prepared using double-stranded DNA reconstituted in PBS and added in triplicates directly to the wells. A uniform cell suspension was prepared from the 6 well plate in 300 μl 0.5N NaOH aqueous solution, and 60 μl of the unknown samples were added in triplicates to separate wells. A solution of 0.16% acetaldehyde in water was prepared and mixed at a 1:5 ratio with perchloric acid (20% vol/vol). This solution (60 μl) was added to each well along with 100 μl of a 4% diphenylamine solution in glacial acetic acid. The plates were incubated at 37° C. for 24 hours. After centrifugation, 100 μl supernatant of each well was transferred to a new 96 well plate, and the OD595 was measured using a microplater reader. The DNA concentration was determined by extrapolation to the standard curve and the amount of cells/well was calculated using the equation: 1 cell≈7 pg DNA.

[2] = system: aromatase activity in SK-BR-3 breast cancer cells; assay: Tritiated water-release assay in SK-BR-3 cells (additional compounds); format: cell-based, human; settings: for IC50: dose-response (FIG. 13), read-out: IC50 (μM), suppression of aromatase activity in SK-BR-3 breast cancer cells
Method: as §1, with “JAR cells were maintained in RPMI 1640 medium with 2 mM L-glutamine adjusted to contain 1.5 g/L sodium bicarbonate, 4.5 g/L glucose, 10 mM HEPES, and 1.0 mM sodium pyruvate, 90%; FBS, 10%.” left out
as §2
as §3, with “A solution of 0.16% acetaldehyde in water was prepared and mixed at a 1:5 ratio with perchloric acid (20% vol/vol).” left out

Row | SMILES | inhibition at 15 µM [1] | IC50 [2] | increase in activity compared with nimesulide ([2]; from IC50 values)
1 | CN(c1ccc([N+](=O)[O-])cc1OCc1ccc2ccccc2c1)S(C)(=O)=O [Compound 28c, N-methyl-N-[2-(β-naphthylmethoxy) 4-nitrophenyl]methanesulfonamide] | < 50% | 2.68 ± 0.91 µM | –
2 | CN(c1ccc([N+](=O)[O-])cc1OCc1ccccc1-c1ccccc1)S(C)(=O)=O [Compound 29c, N-methyl-N-[2-(2′-phenylbenzyloxy)-4-nitrophenyl]methanesulfonamide] | < 50% | 0.33 ± 0.15 µM | eighty fold increase
3 | Cc1ccc(COc2cc([N+](=O)[O-])ccc2N(C)S(C)(=O)=O)cc1 [Compound 30c, N-methyl-N-[2-(4′-methylbenzyloxy)-4-nitrophenyl]methanesulfonamide] | < 50% | 2.33 ± 0.66 µM | –
4 | CN(c1ccc([N+](=O)[O-])cc1OCc1ccccc1)S(C)(=O)=O [Compound 26f, N-methyl-N-(2-benzyloxy-4-nitrophenyl) methanesulfonamide] | < 50% | 0.81 ± 0.29 µM | –

Further lines, with some results ahead:

Row | inhibition at 15 µM [1] | IC50 [2] | SMILES | increase in activity compared with nimesulide ([2]; from IC50 values)
5 | < 50% | 0.49 ± 0.14 µM | CN(c1ccc([N+](=O)[O-])cc1OCc1ccc([N+](=O)[O-])cc1)S(C)(=O)=O [Compound 27c, N-methyl-N-[2-(4′-nitrobenzyloxy)-4-nitrophenyl]methanesulfonamide] | –
6 | < 50% | 1.78 ± 0.63 µM | CN(c1ccc([N+](=O)[O-])cc1OCc1ccc(F)cc1)S(C)(=O)=O [Compound 33c, N-methyl-N-[2-(4′-fluorobenzyloxy)-4-nitrophenyl]methanesulfonamide] | –
